Test results: patent US8030344B2, “Inhibitors of histone deacetylase” (MethylGene Inc., priority 2007, dated 2011)

Experiments:
HDAC-1 = HDAC-1 (Homo sapiens, UniProt Q13547); assay: Inhibition of histone deacetylase enzymatic (HDAC-1) activity, Boc-Lys(Ac)-AMC fluorescence assay; type: biochemical
Method: Inhibition of Histone Deacetylase Enzymatic (HDAC-1) Activity
(§1) The following protocol is used to assay the compounds of the invention. In the assay, the buffer used is 25 mM HEPES, pH 8.0, 137 mM NaCl, 2.7 mM KCl, 1 mM MgCl2 and the substrate is Boc-Lys(Ac)-AMC in a 50 mM stock solution in DMSO. The enzyme stock solution is 4.08 μg/mL in buffer.
(§2) The compounds are pre-incubated (2 μl in DMSO diluted to 13 μl in buffer for transfer to assay plate) with enzyme (20 μl of 4.08 μg/ml) for 10 minutes at room temperature (35 μl pre-incubation volume). The mixture is pre-incubated for 5 minutes at room temperature. The reaction is started by bringing the temperature to 37° C. and adding 15 μl substrate. Total reaction volume is 50 μl. The reaction is stopped after 20 minutes by addition of 50 μl developer, prepared as directed by Biomol (Fluor-de-Lys developer, Cat. # KI-105). A plate is incubated in the dark for 10 minutes at room temperature before reading (λEx=360 nm, λEm=470 nm, Cutoff filter at 435 nm). Similar assays are performed to measure HDAC-2 inhibitory activity

HDAC-2 = HDAC-2 (Homo sapiens, UniProt Q92769); assay: Similar assay measuring HDAC-2 inhibitory activity; type: biochemical
HDAC-2, sequence (Q92769 whole entry): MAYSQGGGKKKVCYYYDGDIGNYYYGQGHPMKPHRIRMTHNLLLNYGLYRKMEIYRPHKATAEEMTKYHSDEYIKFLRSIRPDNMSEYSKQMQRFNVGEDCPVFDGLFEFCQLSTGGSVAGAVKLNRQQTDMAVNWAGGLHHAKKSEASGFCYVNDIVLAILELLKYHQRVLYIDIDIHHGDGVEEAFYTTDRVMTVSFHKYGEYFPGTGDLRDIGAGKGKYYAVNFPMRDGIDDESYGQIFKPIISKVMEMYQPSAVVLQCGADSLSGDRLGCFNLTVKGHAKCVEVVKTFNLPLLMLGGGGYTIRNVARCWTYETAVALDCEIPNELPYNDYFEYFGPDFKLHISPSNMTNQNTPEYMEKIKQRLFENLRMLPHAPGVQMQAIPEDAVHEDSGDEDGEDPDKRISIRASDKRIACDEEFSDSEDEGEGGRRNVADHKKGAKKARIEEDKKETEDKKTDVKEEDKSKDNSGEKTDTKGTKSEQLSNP
Method: as §1, §2

HCT116 cells = assay: MTT assay on HCT116 cells; type: cell-based; conditions: 72 hours incubation, concentration reducing cell numbers to 50% of solvent treated cells
Method: (§3) HCT116 cells (2000/well) are plated into 96-well tissue culture plates one day before compound treatment. Representative compounds at various concentrations were added to the cells. The cells are incubated for 72 hours at 37° C. in 5% CO2 incubator. MTT (3-[4,5-dimethylthiazol-2-yl]-2,5 diphenyl tetrazolium bromide, Sigma) is added at a final concentration of 0.5 mg/ml and incubated with the cells for 4 hours before one volume of solubilization buffer (50% N,N-dimethylformamide, 20% SDS, pH 4.7) is added onto the cultured cells. After overnight incubation, solubilized dye is quantified by calorimetric reading at 570 nM using a reference at 630 nM. OD values are converted to cell numbers according to a standard growth curve of the relevant cell line. The concentration which reduces cell numbers to 50% of that of solvent treated cells is determined as MTT IC50. A similar assay is performed on HMEC cells.

HMEC cells = assay: MTT assay on HMEC cells; type: cell-based; conditions: similar MTT assay on HMEC cells
Method: as §3

HDAC-1, sequence (Q13547 whole entry): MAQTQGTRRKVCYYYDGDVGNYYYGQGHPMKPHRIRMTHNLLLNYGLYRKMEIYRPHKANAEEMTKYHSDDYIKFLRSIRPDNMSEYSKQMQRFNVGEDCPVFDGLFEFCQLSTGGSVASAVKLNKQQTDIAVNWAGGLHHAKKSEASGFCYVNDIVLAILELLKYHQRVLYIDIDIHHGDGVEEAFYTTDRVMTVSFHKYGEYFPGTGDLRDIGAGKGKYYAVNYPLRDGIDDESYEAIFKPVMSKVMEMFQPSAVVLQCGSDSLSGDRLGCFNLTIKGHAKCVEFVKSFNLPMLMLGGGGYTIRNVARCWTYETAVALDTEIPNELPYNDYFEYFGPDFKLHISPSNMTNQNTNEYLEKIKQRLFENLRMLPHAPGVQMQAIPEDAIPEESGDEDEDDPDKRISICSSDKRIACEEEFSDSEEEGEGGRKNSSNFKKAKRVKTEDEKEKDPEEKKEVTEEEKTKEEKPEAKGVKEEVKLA

| Compound | IC50 (HDAC-1) [nM] | IC50 (HDAC-2) [nM] | IC50 (HCT116 cells; Homo sapiens, HCT-116) [nM] | IC50 (HCT116 cells) [nM] | IC50 (HMEC cells; Homo sapiens) [nM] | IC50 (HMEC cells) [nM] |
| --- | --- | --- | --- | --- | --- | --- |
| CN(C)CCOC(=O)N[C@H]1CCN(c2ccc(C(=O)Nc3ccccc3N)cc2)C1 [Compound 119, (S)-2-(Dimethylamino)ethyl-1-(4-(2-aminophenylcarbamoyl) -phenyl)pyrrolidin-3-ylcarbamate] | ≤ 500 | ≤ 500 | ≤ 1000 |  | > 50000 |  |
| COC(=O)N[C@H]1CCN(c2ccc(C(=O)Nc3ccccc3N)cc2)C1 [Compound 120, (S)-Methyl 1-(4-(2-aminophenylcarbamoyl)phenyl)pyrrolidin-3-yl carbamate] | ≤ 500 | ≤ 500 |  |  | > 50000 |  |
| CCOC(=O)N[C@H]1CCN(c2ccc(C(=O)Nc3ccccc3N)cc2)C1 [Compound 121, (S)-Ethyl 1-(4-(2-aminophenylcarbamoyl)phenyl)pyrrolidin-3-yl carbamate] | ≤ 500 | ≤ 500 |  | ≤ 1000 |  | ≤ 50000 |
| CC(C)(C)OC(=O)N[C@H]1CCN(c2ccc(C(=O)Nc3ccccc3N)cc2)C1 [Compound 122, (S)-tert-Butyl 1-(4-(2-aminophenylcarbamoyl)phenyl)pyrrolidin-3-yl carbamate] | ≤ 500 | ≤ 500 | ≤ 1000 |  | ≤ 50000 |  |
| CC(C)COC(=O)N[C@H]1CCN(c2ccc(C(=O)Nc3ccccc3N)cc2)C1 [Compound 123, (S)-Isobutyl 1-(4-(2-aminophenylcarbamoyl)phenyl)pyrrolidin-3-yl carbamate] | ≤ 500 | ≤ 5000 | ≤ 500 |  | ≤ 50000 |  |
| Nc1ccccc1NC(=O)c1ccc(N2CC[C@H](NC(=O)OCc3ccccc3)C2)cc1 [Compound 124, (S)-Benzyl 1-(4-(2-aminophenylcarbamoyl)phenyl)pyrrolidin-3-yl carbamate] | ≤ 500 | ≤ 100 |  |  | ≤ 5000 |  |
| Nc1ccccc1NC(=O)c1ccc(N2CC[C@H](NC(=O)N3CCOCC3)C2)cc1 [Compound 126, (S)-N-(1-(4-(2-Aminophenylcarbamoyl)phenyl)pyrrolidin-3-yl)morpholine-4-carboxamide] | ≤ 500 | ≤ 1000 | ≤ 1000 |  | > 50000 |  |
| Nc1ccccc1NC(=O)c1ccc(N2CC[C@H](NC(=O)OCc3cccnc3)C2)cc1 [Compound 127, ((S)-Pyridin-3-ylmethyl-1-(4-(2-aminophenylcarbamoyl)phenyl)pyrrolidin-3-yl carbamate] | ≤ 1000 | ≤ 5000 | ≤ 5000 |  | > 50000 |  |
| Nc1ccccc1NC(=O)c1ccc(N2CC[C@H](NC(=O)NCc3cccnc3)C2)cc1 [Compound 128, (S)-N-(2-Aminophenyl)-4-(3-(3-(pyridin-3-ylmethyl)ureido)pyrrolidin-1-yl)benzamide] | ≤ 5000 | ≤ 1000 | ≤ 5000 |  | ≤ 50000 |  |
| COCCOC(=O)N[C@H]1CCN(c2ccc(C(=O)Nc3ccccc3N)cc2)C1 [Compound 129, (S)-2-Methoxyethyl-1-(4-(2-aminophenylcarbamoyl)phenyl)pyrrolidin-3-yl carbamate] |  |  |  | ≤ 1000 |  | ≤ 50000 |
| COCCOC(=O)N[C@@H]1CCN(c2ccc(C(=O)Nc3ccccc3N)cc2)C1 [Compound 130] | ≤ 5000 | ≤ 5000 | ≤ 5000 |  |  |  |
| Nc1ccccc1NC(=O)c1ccc(N2CC[C@H](NC(=S)NCc3cccnc3)C2)cc1 [Compound 131, (S)-N-(2-Aminophenyl)-4-(3-(3-(pyridin-3-ylmethyl)thioureido)pyrrolidin-1-yl)benzamide] | ≤ 500 | ≤ 5000 | ≤ 1000 |  |  |  |
| COC(=S)N[C@H]1CCN(c2ccc(C(=O)Nc3ccccc3N)cc2)C1 [Compound 135, (S)-O-Methyl 1-(4-(2-aminophenylcarbamoyl)phenyl)pyrrolidin-3-ylcarbamothioate] | ≤ 100 | ≤ 500 | ≤ 500 |  | ≤ 10000 |  |
| Nc1ccccc1NC(=O)c1ccc(N2CC[C@H](NC(=O)OCC(F)(F)F)C2)cc1 [Compound 140, (S)-2,2,2-Trifluoroethyl 1-(4-(2-aminophenylcarbamoyl)phenyl) -pyrrolidin-3-ylcarbamate] | ≤ 500 | ≤ 500 | ≤ 1000 |  | ≤ 10000 |  |
| CN(C)CCCOC(=O)N[C@H]1CCN(c2ccc(C(=O)Nc3ccccc3N)cc2)C1 [Compound 144, (S)-3-(Dimethylamino)propyl 1-(4-(2-aminophenylcarbamoyl)phenyl)pyrrolidin-3-yl carbamate] | ≤ 500 | ≤ 500 |  | ≤ 1000 |  |  |

Second part, led by results:

| IC50 (HDAC-1) [nM] | IC50 (HDAC-2) [nM] | IC50 (HCT116 cells; Homo sapiens, HCT-116) [nM] | IC50 (HCT116 cells) [nM] | Compound | IC50 (HMEC cells; Homo sapiens) [nM] | IC50 (HMEC cells) [nM] |
| --- | --- | --- | --- | --- | --- | --- |
| ≤ 500 | ≤ 500 | ≤ 5000 |  | CN1CC[C@@H](OC(=O)N[C@H]2CCN(c3ccc(C(=O)Nc4ccccc4N)cc3)C2)C1 [Compound 146, (R)-1-Methylpyrrolidin-3-yl (S)-1-(4-(2-aminophenylcarbamoyl)phenyl)pyrrolidin-3-yl carbamate] |  |  |
| ≤ 1000 |  | ≤ 50000 |  | COCCOC(=O)N[C@H]1CCN(c2ncc(C(=O)Nc3ccccc3N)cn2)C1 [Compound 151, (S)-2-Methoxyethyl 1-(5-(2-aminophenylcarbamoyl)pyrimidin-2-yl)pyrrolidin-3-ylcarbamate] |  |  |
| ≤ 500 | ≤ 5000 | ≤ 5000 |  | COCCOC(=O)N[C@H]1CCN(c2ccc(C(=O)Nc3ccccc3N)cn2)C1 [Compound 154, (S)-2-Methoxyethyl 1-(5-(2-aminophenylcarbamoyl)pyridin-2-yl)pyrrolidin-3-ylcarbamate] |  |  |
| ≤ 500 | ≤ 1000 |  |  | CC(=O)O[C@H]1CCN(c2ccc(C(=O)Nc3ccccc3N)cc2)C1 [Compound 159, (S)-1-(4-(2-Aminophenylcarbamoyl)phenyl)pyrrolidin-3-yl acetate] |  |  |
| ≤ 1000 | ≤ 1000 |  |  | Nc1ccccc1NC(=O)c1ccc(N2CC[C@H](O)C2)cc1 [Compound 160, (S)-N-(2-Aminophenyl)-4-(3-hydroxypyrrolidin-1-yl)benzamide] |  |  |
| ≤ 1000 | ≤ 5000 |  |  | CN(C)[C@H]1CCN(c2ccc(C(=O)Nc3ccccc3N)cc2)C1 [Compound 165, (S)-N-(2-Aminophenyl)-4-(3-(dimethylamino)pyrrolidin-1-yl)benzamide] |  |  |
| ≤ 500 | ≤ 1000 | ≤ 5000 |  | Nc1ccccc1NC(=O)c1ccc(N2CC[C@H](NC(=O)OCCN3CCOCC3)C2)cc1 [Compound 195, (S)-2-morpholinoethyl 1-(4-(2-aminophenylcarbamoyl)-phenyl)pyrrolidin-3-ylcarbamate] |  |  |
| ≤ 500 | ≤ 500 | ≤ 5000 |  | COC(=O)N(Cc1cccnc1)[C@H]1CCN(c2ccc(C(=O)Nc3ccccc3N)cc2)C1 [Compound 196, (S)-methyl 1-(4-(2-aminophenylcarbamoyl)phenyl)-pyrrolidin-3-yl(pyridin-3-ylmethyl)carbamate] |  |  |
| ≤ 100 | ≤ 500 |  |  | Nc1ccccc1NC(=O)c1ccc(N2CC[C@H](NC(=O)OCC3c4ccccc4-c4ccccc43)C2)cc1 [Compound 201, (S)-(9H-fluoren-9-y)methyl 1-(4-(2-aminophenylcarbamoyl)-phenyl)pyrrolidin-3-ylcarbamate] |  |  |
| ≤ 1000 |  |  | ≤ 10000 | (S)-Methyl 1-(5-(2-aminophenyl carbamoyl)pyrimidin-2-yl) pyrrolidin-3-yl carbamate [Compound 152] |  |  |
